{
  "source": "patent US12161647B2",
  "about": "“Treating hearing loss” (Massachusetts Eye and Ear Infirmary, priority 2012, dated 2024)",
  "key": {"[1]": {"tested_on": "noise-damaged cochlea", "experiment": "ABR after systemic LY411575 in noise-damaged mice", "type": "in vivo, mouse", "method": "(§1) 4-week-old mice were exposed free-field, awake and unrestrained, in a small reverberant chamber (22). Acoustic trauma was produced by a 2 h exposure to an 8-16 kHz octave band noise presented at 116 dB SPL. The exposure stimulus was generated by a custom white-noise source, filtered (Brickwall Filter with a 60 dB/octave slope), amplified (Crown power amplifier), and delivered (JBL compression driver) through an exponential horn fitted securely to a hole in the top of a reverberant box.\n[…] Hearing was measured by ABR at 1 d before, 2 d, 1, 2 week, 1, 2 and 3 months after noise exposure.\nMice were anesthetized with ketamine (100 mg/kg i.p.) and xylazine (20 mg/kg i.p.). Needle electrodes were inserted at vertex and pinna, with a ground near the tail. ABRs were evoked with 5-ms tone pips (0.5-ms rise-fall with a cos^2 onset envelope delivered at 35/s). The response was amplified, filtered and averaged in a LabVIEW-driven data-acquisition system. Sound level was raised in 5 dB steps from ≥10 dB below threshold <80 dB SPL. At each sound level, 1024 responses were averaged (with stimulus polarity alternated), using an “artifact reject,” whereby response waveforms were discarded when peak-to-peak response amplitude exceeded 15 μV. […] For amplitude versus level functions, the wave I peak was identified by visual inspection at each sound level and the peak-to-peak amplitude computed."}, "[2]": {"experiment": "Toxicity of systemic LY411575", "type": "in vivo", "details": "50 mg/kg for 5 d", "method": "For systemic administration, LY411575 (50 mg/kg) dissolved in 0.5% (wt/vol) methylcellulose (WAKO) was injected orally once daily for 5 consecutive d. Hearing was measured by ABR at 1 d before, 2 d, 1, 2 week, 1, 2 and 3 months after noise exposure.\nPreliminary range finding experiments for drug treatment were carried out by systemic injection and were limited by toxicity. A minimal dosing regimen for an effect on the thymus weight was chosen (43, 44)."}, "[3]": {"tested_on": "Hes5 mRNA", "experiment": "qRT-PCR of Hes5 in deafened mature cochlea after round window administration", "type": "in vivo, mouse", "method": "as §1\n(§2) 4-week-old mice weighing 12 to 16 g were used. Before surgery, the animals were anesthetized with ketamine (20 mg/kg, i.p.) and xylazine (100 mg/kg, i.p.), and an incision was made posterior to the pinna near the external meatus after local administration of lidocaine (1%). […]\n(§3) The organs of Corti were dissected in HBSS (Invitrogen) and stored in RNAlater (Ambion) at −80° C. until further use. […] Samples were analyzed in 96 wells in triplicate by qPCR (Applied Biosystems 7900HT), and PCR thermal cycling conditions were as follows: initial denaturation at 95° C. for 2 min, denaturation at 95° C. for 15 s, annealing/extension at 60° C. for 1 min for 45 cycles. […] Relative gene expression was analyzed by using the ΔΔCT method. Gene expression was calculated relative to 18S RNA, and the amount of cDNA applied was adjusted so that the Ct value for 18S RNA was between 8 and 11. […]"}, "[4]": {"tested_on": "Atoh1 mRNA", "experiment": "qRT-PCR of Atoh1 in deafened mature cochlea after round window administration", "type": "in vivo, mouse", "method": "as §1, §2, §3"}, "[5]": {"tested_on": "deafened ears", "experiment": "ABR and DPOAE in deafened ears after round window administration", "type": "in vivo, mouse", "method": "as §1\n4-week-old mice weighing 12 to 16 g were used. Before surgery, the animals were anesthetized with ketamine (20 mg/kg, i.p.) and xylazine (100 mg/kg, i.p.), and an incision was made posterior to the pinna near the external meatus after local administration of lidocaine (1%). The otic bulla was opened to approach the round window niche. The end of a piece of PE 10 tubing (Becton Dickinson) was drawn to a fine tip in a flame and gently inserted into the round window niche. LY411575 was dissolved in DMSO and diluted 10-fold in polyethylene glycol 400 (Sigma) to a final concentration of 4 mM. This solution (total volume 1 μl) was injected into the round window niche of the left ear. Polyethylene glycol 400 with 10% DMSO was injected into the right ear as a control. The solution was administered for 2 min. This approach is presently used clinically (e.g. transtympanic injection of steroids for sudden hearing loss and gentamicin for severe balance disorders) and has the advantage of sparing the […] but still taking advantage of the local route provided by the round window membrane for delivery of drug into the inner ear (50). Gelatin was placed on the niche to maintain the solution, and the wound was closed.\nAuditory brain stem responses (51, 52) were measured in each animal at 7 log-spaced frequencies (half-octave steps from 5.6 to 45.2 kHz) before and 1 d after noise exposure, and 1-week, 1-month, and 3-months after surgery. Mice were anesthetized with ketamine (100 mg/kg i.p.) and xylazine (20 mg/kg i.p.). Needle electrodes were inserted at vertex and pinna, with a ground near the tail. ABRs were evoked with 5-ms tone pips (0.5-ms rise-fall with a cos^2 onset envelope delivered at 35/s). The response was amplified, filtered and averaged in a LabVIEW-driven data-acquisition system. Sound level was raised in 5 dB steps from ≥10 dB below threshold <80 dB SPL. At each sound level, 1024 responses were averaged (with stimulus polarity alternated), using an “artifact reject,” whereby response waveforms were discarded when peak-to-peak response amplitude exceeded 15 μV. […] For amplitude versus level functions, the wave I peak was identified by visual inspection at each sound level and the peak-to-peak amplitude computed."}},
  "data": [
    {"compound": "C[C@H](NC(=O)[C@@H](O)c1cc(F)cc(F)c1)C(=O)N[C@@H]1C(=O)N(C)c2ccccc2-c2ccccc21", "note": "[LY411575, N-2((2S)-2-(3,5-difluorophenyl)-2-hydroxyethanoyl)-N1-((7S)-5-methyl-6-oxo-6,7-dihydro-5H-dibenzo[b,d]azepin-7-yl)-l-alaninamide]", "values": [
      {"measurement": "therapeutic benefit at lower dose", "setting": "[1]; 10 mg/kg body weight", "result": "no therapeutic benefit"},
      {"measurement": "noise-induced ABR threshold shift", "setting": "[1]; oral 50 mg/kg for 5 d, 4, 8 and 16 kHz", "result": "decreased"},
      {"measurement": "side-effects in treated mice", "setting": "[2]", "result": "significant side-effects"},
      {"measurement": "thymus total number of cells decreased to", "setting": "[2]", "result": "1/40"},
      {"measurement": "mice (of 12) that could be tested for ABR at 3 months; the rest died within the first week", "setting": "[2]; deaths due to severe diarrhea and weight loss", "result": 6, "unit": "mice"},
      {"measurement": "thymus double positive fraction of CD4 and CD8 after treatment", "setting": "[2]; decreased from 78.6%", "result": 1.23, "unit": "%"},
      {"measurement": "weight loss in surviving mice", "setting": "[2]; in 3 d", "result": "approximately 15%"},
      {"measurement": "spleen finding", "setting": "[2]; in a week", "result": "severe atrophy"},
      {"measurement": "noise-induced Hes5 mRNA induction", "setting": "[3]; round window niche, 4 mM 1 μl, 1 d after noise, at 1 d, p<0.01 vs control cochlea", "result": "completely blocked"},
      {"measurement": "Hes5 expression level", "setting": "[3]; three days after LY411575 treatment", "result": "unchanged from the control cochlea"},
      {"measurement": "Atoh1 expression above the level post-noise exposure", "setting": "[4]; 1 d after LY411575 treatment, round window niche", "result": 2.28, "unit": "×"},
      {"measurement": "Atoh1 expression", "setting": "[4]; 3 d after treatment, p<0.05", "result": "remained elevated"},
      {"measurement": "ABR wave I amplitudes", "setting": "[5]; 8, 11.33 and 16 kHz, 3 months", "result": "increased"},
      {"measurement": "ABR threshold recoveries", "setting": "[5]; 8, 11.33 and 16 kHz, 3 months after treatment vs 1 d after noise", "result": "significantly greater than control"},
      {"measurement": "sound level at which the ABR peak could first be detected", "setting": "[5]; 8 kHz, 3 months after treatment, example mouse, control side 75 dB", "result": 65, "unit": "dB"},
      {"measurement": "ABR threshold recoveries at high frequencies", "setting": "[5]; frequencies above 22.65 kHz, either ear", "result": "No threshold recoveries"},
      {"measurement": "recoveries above the noise floor of DPOAE", "setting": "[5]; mouse, in vivo", "result": "no recoveries"}
    ]}
  ]
}
